Results as given in patent publication US10131653B2, “Heterocyclic compound” (TAKEDA PHARMACEUTICAL COMPANY LIMITED, priority 2015, dated 2018).

Columns and labels:
[1] = Measurement of solubility; assay type: physicochemical; conditions: aqueous buffer, thermodynamic from solid; Britton-Robinson's Buffer pH 3, 37° C., shaking 2 hr; crystals from n-heptane suspension
Method: n-Heptane was added to the compounds of Examples 1, 2 and 102 at 40 mg/mL, respectively, and the mixtures were continued to be stirred at room temperature in a suspended state. After 3 to 7 days, the mixtures were filtered, and the obtained crystals as a sample were subjected to powder X-ray diffraction measurement (measurement condition: mentioned above) and solubility measurement.

human OX2 receptor = biological target: T1, human OX2 receptor (Homo sapiens, UniProt O43614); experiment: Measurement of orexin receptor antagonistic activity (calcium fluorescence, FLIPRtetra); assay type: cell-based; conditions: CHO, 10 μM test compound; CHO cells expressing human OX2 receptor; OX-A 0.3 nM; read-out: Human Orexin2 receptor inhibition (at 10 μM)
T1 construct: expressed in transfected cells; host or cells: CHO cells
T1 sequence (O43614 1-444): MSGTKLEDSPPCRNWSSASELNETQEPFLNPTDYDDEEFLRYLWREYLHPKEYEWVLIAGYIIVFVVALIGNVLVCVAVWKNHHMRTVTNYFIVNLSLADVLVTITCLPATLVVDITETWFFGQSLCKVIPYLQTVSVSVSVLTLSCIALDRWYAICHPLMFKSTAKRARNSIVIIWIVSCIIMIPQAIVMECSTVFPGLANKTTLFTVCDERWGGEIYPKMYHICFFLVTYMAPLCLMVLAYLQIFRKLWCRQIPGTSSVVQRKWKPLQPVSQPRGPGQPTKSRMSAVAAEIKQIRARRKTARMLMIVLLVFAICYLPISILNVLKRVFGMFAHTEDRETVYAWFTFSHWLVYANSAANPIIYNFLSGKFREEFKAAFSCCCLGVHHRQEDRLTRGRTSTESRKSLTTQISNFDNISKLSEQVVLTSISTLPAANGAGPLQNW
Outline: (§1)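 Calcium fluorescence measured by FLIPRtetra every second for 2 min after orexin-A challenge, 1 nM final for OX1 and 0.3 nM final for OX2. Receptor-expressing CHO cells received compound in HEPES-buffered HBSS with 0.1% BSA just before agonist.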

human OX1 receptor = biological target: T2, human OX1 receptor (Homo sapiens, UniProt O43613); experiment: as above; assay type: cell-based; conditions: 10 μM test compound; CHO cells expressing human OX1 receptor; OX-A 1 nM
T2 construct: expressed in transfected cells; host or cells: CHO cells
T2 sequence (O43613 1-425): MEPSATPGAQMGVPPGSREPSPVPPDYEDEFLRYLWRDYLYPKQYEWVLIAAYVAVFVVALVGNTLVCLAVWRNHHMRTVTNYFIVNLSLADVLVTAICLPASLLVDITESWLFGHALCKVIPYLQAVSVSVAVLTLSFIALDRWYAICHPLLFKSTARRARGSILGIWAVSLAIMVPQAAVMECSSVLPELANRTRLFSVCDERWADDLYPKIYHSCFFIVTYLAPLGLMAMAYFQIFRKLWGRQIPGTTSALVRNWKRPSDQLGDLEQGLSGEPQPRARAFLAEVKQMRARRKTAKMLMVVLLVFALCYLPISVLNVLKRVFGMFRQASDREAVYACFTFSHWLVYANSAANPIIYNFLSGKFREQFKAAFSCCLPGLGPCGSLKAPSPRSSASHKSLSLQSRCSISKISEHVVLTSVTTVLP
Outline: as §1

Male SD rats = experiment: Effect on sleep in rat (brain wave measurement); assay type: in vivo
Method: Male SD rats were purchased from Charles River Laboratories Japan, Inc. They were used for an experiment after an acclimation period of at least one week after carrying them in the animal experimental facility. They were bred in the animal experimental facility with environment in which 12-hours light-dark cycle was performed, humidity and temperature were controlled, and free water drinking and feeding were allowed.
Electrodes for brain wave measurement were implanted in rat cortex, muscle electrodes were implanted in rat cervical muscle, and a transmitter was implanted under rat back skin. Rats in which chronic electrodes were implanted were fully acclimated to a box for brain wave measurement, and then the brain wave measurement was performed. The brain wave data was obtained using Dataquest ART manufactured by Data Sciences International. For analysis, wakefulness, non-REM sleep and REM sleep were automatically determined using Sleep Sign which is a program for sleep analysis study by KISSEI COMTEC Co., Ltd. The compound of Example 102 was subcutaneously administered at a dose of 3 mg/kg immediately before beginning of dark period. The sum of non-REM sleep and REM sleep 1 hr after the administration was regarded as total sleep. All data were shown as the mean+standard error. For statistical analysis, variance analysis to crossover was performed (*p ?0.05).

Cc1cc(N2CCN(C(=O)c3cc(Cl)ccc3-n3nccn3)C[C@H](C)O2)nc(C)n1 [Example 102, (5-chloro-2-(2H-1,2,3-triazol-2-yl)phenyl)((7S)-2-(2,6-dimethylpyrimidin-4-yl)-7-methyl-1,2,5-oxadiazepan-5-yl)methanone]
solubility at 2 h [1]: ≥ 5000 µg/mL
inhibition at 10 µM (human OX2 receptor): 101%
Human Orexin1 receptor inhibition (at 10 μM) (human OX1 receptor): 94%
Total sleep compared with solvent control group (Male SD rats; 3 mg/kg subcutaneous): significantly increased
Total sleep (Male SD rats; 3 mg/kg subcutaneous immediately before dark period, sum of non-REM and REM sleep 1 hr after administration, mean): 33.51 min
